Assay results: patent publication US12257253B2, “Triamterene or nolatrexed for use in the treatment of phenylketonuria” (SOM INNOVATION BIOTECH, S.A., priority 2019, dated 2025)

Legend:
Arg261Gln (R261Q) PAH [1] = biological target: T1, Arg261Gln (R261Q) PAH (Homo sapiens (Human), UniProt P00439, R261Q); experiment: Thermal stability shift assay (DSF); type: binding; conditions: compound 30 μM (BH4 43 μM)
Description: (§1) 1. Thermal Stability Shift Assay
(§2) Thórólfsson et al. (Biochemistry, 2002, 41(24), 7573-7585) describe that the thermal denaturation of hPAH occurs in three stages: (i) unfolding of the four regulatory domains, which is responsible for the low-temperature calorimetric transition (ii) unfolding of two (out of the four) catalytic domains, which is responsible for the high-temperature transition; and (iii) irreversible protein denaturation. The most important domain for stabilization is the regulatory domain.
(§3) Thus, to test the compound effect on thermal stability of the target protein a thermal stability shift assay (also called differential scanning fluorimetry (DSF)) was performed [Niesen F. H. et al., Nat Protoc., 2007, 2(9), 2212-2221; Gersting S. W. et al., Human Molecular Genetics, 2010, 19(10), 2039-2049; and Gersting S. W. et al., J. Biol Chem. 2010, 285(40), 30686-30697]. DSF monitors thermal unfolding of proteins in the presence of a fluorescent dye (SYPRO Orange; λexc=465 nm, λem=610 nm) and was performed using a real-time PCR instrument (Applied BioSystems 7000HT Fast Real-Time PCR System). Compounds that increase the midpoints of thermal denaturation (Tm) are considered to bind and stabilize the protein.
(§4) In brief, purified wild-type or Arg261Gln (which is the most frequent mutation responsive to BH4) PAH proteins (diluted in 20 mM NaHEPES, pH 7.0 and 200 mM NaCl, 2 mM DTT to 2 mg/ml) were used at a final concentration of 0.2 mg/ml protein per sample. The compounds were tested at a final concentration of 30 μM. A no compound control (NCC) was used according to the compound solvent at a final concentration of 2% (H2O, DMSO, ethanol, methanol). As a positive control we used the natural cofactor 6R-L-erythro-5,6,7,8-tetrahydrobiopterin (BH4, CAS 69056-38-8) stabilized in 100 mM dithiothreitol (DTT), in a final concentration of 43 μM. To exclude unspecific effects of the compound to the dye, a no protein control (NPC) was added (buffer, compound, dye). The measurement was performed in duplicates and samples were denatured by scanning a temperature range of 20 to 75° C. at a scan rate of 0.5° C./min.
(§5) The data was normalized and the respective Tm values were calculated by bi-phasic equation to determine temperatures at which half denaturation occurred (Software GraphPadPrism). To identify compound specific effects on the thermal stability of the target protein, the reference Tm (NCC) was used to calculate the temperature shift between compound treated and not treated protein (Tm−TmNCC), from duplicates, to provide transition midpoints shifts (ΔTm1 and ΔTm2). Tm1 and Tm2 are the two different transition mid point of the unfolding process of the protein as the tetrameric protein PAH unfolds in two steps due to its domains. A shift in Tm1 of 2° C. reflects a relevant increase in thermal stability on the regulatory domain and, thus, is considered a positive result.

wild-type PAH [2] = biological target: T2, wild-type PAH (Homo sapiens (Human), UniProt P00439); experiment: Thermal stability shift assay (DSF); type: binding; conditions: compound 30 μM (BH4 43 μM)
Description: as §1, §2, §3, §4, §5

Arg261Gln (R261Q) PAH [3] = biological target: T1, Arg261Gln (R261Q) PAH; experiment: Phenylalanine hydroxylase residual protein amount (dot blot, COS-7 lysates); type: cell-based; conditions: COS-7 cells, compound 10 μM (sepiapterin 5 μM), 48 h; read-out: PAH protein level (immune blot signal) R261Q PAH Mean
Method: (§6) 3. Phenylalanine Hydroxylase Residual Protein Amount
(§7) The analysis of the residual PAH protein amount was based on the method described in Gersting S. W. et al., Human Molecular Genetics, 2010, 19(10), 2039-2049 with modifications.
(§8) Detection of the residual PAH protein amount was performed as a dot blot using the lysates obtained from the cell culture where transiently transfected COS-7 cells (with wild-type PAH or PAH variant) were exposed for 48 h to compounds. The experiment was carried out from the same samples as used for measuring enzyme activities.
(§9) 2 μl of the lysate were dropped onto the nitrocellulose membrane. The membrane was allowed to air dry at room temperature for 30 min followed by 40 min blocking in 5% milk in TBS-Tween (room temperature). The membrane was incubated with the mouse monoclonal primary antibody specific for PAH (Millipore, Cat. No. MAB5278, 1:1000 dilution in 5% milk in TBS-Tween) for overnight at 4° C. Next, the membrane was washed (3×10 min in TBS-Tween) and incubated with the secondary HRP-conjugated antibody (anti-mouse antibody; Santa Cruz Biotechnology, Inc., Cat. No. sc-2005; 1:1000 dilution in 5% milk in TBS-Tween) followed by thorough washing in TBS-Tween (3×10 min) and distilled water (1×10 min). Blots were visualized with Pierce™ ECL substrate (ThermoFisher Scientific, Cat No. 32106) and chemiluminescence was monitored with a DIANA III Imaging system or ChemiDoc™ MP Imaging System (BioRad). To analyze the compound effect on the PAH protein amount densitometry analysis was performed using ImageJ Software.
(§10) The effect of compound on PAH protein amount was calculated from triplicates. As for determination of the enzyme activity the background of the not transfected cells (NT) was subtracted from the transfected cells (NCC or compound treated). In the next step delta of the NCC versus compound treated cells was calculated. Residual protein amount greater than 100% represents an increase in the stability of the enzyme with respect to NCC.

wild-type PAH [4] = biological target: T2, wild-type PAH; experiment: as above; type: cell-based; conditions: COS-7 cells, compound 10 μM (sepiapterin 5 μM), 48 h; read-out: PAH protein level (immune blot signal) WT PAH Mean
Method: as §6, §7, §8, §9, §10

[5] = shift of transition midpoint 1 vs NCC
[6] = shift of transition midpoint 2 vs NCC

T2 sequence (P00439 whole entry): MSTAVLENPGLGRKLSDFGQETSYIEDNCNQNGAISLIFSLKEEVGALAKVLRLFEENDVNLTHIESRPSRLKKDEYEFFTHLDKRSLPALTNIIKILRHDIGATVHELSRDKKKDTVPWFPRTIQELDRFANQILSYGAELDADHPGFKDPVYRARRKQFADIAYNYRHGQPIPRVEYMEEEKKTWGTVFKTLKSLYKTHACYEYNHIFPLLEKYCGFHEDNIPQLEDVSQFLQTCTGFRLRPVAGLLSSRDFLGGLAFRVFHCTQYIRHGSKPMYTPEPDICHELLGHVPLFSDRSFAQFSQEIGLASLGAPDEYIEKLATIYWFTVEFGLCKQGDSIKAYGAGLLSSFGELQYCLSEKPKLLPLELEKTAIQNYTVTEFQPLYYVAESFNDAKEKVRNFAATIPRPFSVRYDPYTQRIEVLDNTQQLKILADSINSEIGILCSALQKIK
T1 sequence (P00439 whole entry R261Q): as the sequence (P00439 whole entry) above, with R261Q counted along it

SMILES: Nc1nc(N)c2nc(-c3ccccc3)c(N)nc2n1 [Triamterene, 2,4,7-triamino-6-phenylpteridine]
- ΔTm1 R261Q PAH (Arg261Gln (R261Q) PAH [1]; [5]): 2.21 °C
- ΔTm2 R261Q PAH (Arg261Gln (R261Q) PAH [1]; [6]): 2.82 °C
- ΔTm1 WT PAH (wild-type PAH [2]; [5]): 0.33 °C
- ΔTm2 WT PAH (wild-type PAH [2]; [6]): 3.23 °C
- PAH protein level (% of control) at 10 µM (Arg261Gln (R261Q) PAH [3]): 130%
- PAH protein level (% of control) at 10 µM (wild-type PAH [4]): 110%
